Assay [1] deals with K562 human leukemia cell line. The experiment in a line: K562 Cell Proliferation Assay (MTS). The note with it: K562 cells, 48 hr incubation, MTS cell viability. It is filed as cell-based. The procedure:
K562 human leukemia cell line purchased from Korean cell line bank (KCLB) and were cultured in Roswell Park Memorial Institute (RPMI) 1640 Medium supplemented with 10% fetal bovine serum (FBS) and 1% penicillin-streptomycin in a humidified incubator in an atmosphere of 5% CO2 at 37° C. Cells were seeded in 96-well plates at a density of 2×10^3 cells/well in 100 […] media. Compounds were diluted as two times concentration in 100 μl of media and added to each well. Compounds were 5-fold serially diluted for 6 points and treated from 5 μM to 1.6 nM in K562 cells. After 48 hr incubation, Compound treated cells were analyzed for anti-proliferation assay. Cell viability was investigated using the Cell Titer 96 Aqueous One Solution Reagent. Briefly, 200 μl of media were supplemented with 40 μl of MTS solution, incubated for 4hr, and then the absorbance was recorded at 490 nm with a 96-well plate reader. G150 values were calculated from a series of percent of cell viability at a range of compound concentration. GraphPad Prism 8 software or SigmaPlot 13.0 was used to generate G150 values.

Assay [2] concerns the target T1, recombinant human c-Kit (Homo sapiens, UniProt P10721).
T1 construct: purchased Signalchem
Nature of the assay: c-Kit Kinase Assay (ADP-Glo). It is filed as biochemical. The note with it: In vitro kinase activity. The procedure:
ADP-Glo assay kit was purchased from Promega. Magnesium chloride (MgCl2), ethylene glycol-bis([…] ether)-N,N,N′,N′-tetraacetic acid (EGTA), manganese (II) chloride (MnCl2), bovine serum albumin (BSA), 1,4-dithiothreitol (DTT) and dimethyl sulfoxide (DMSO) were purchased from Sigma-Aldrich. HEPES buffer was purchased from Gibco. c-Kit kinase and poly (4:1 Glu, Tyr) peptide were purchased from Signalchem.
(§1) c-Kit kinase activity was measured by Promega's ADP-Glo™ Assay. In this assay, 100ng of recombinant human c-Kit is incubated with 5 μL of compounds (0.5% DMSO), 5 μL of Poly (4:1 Glu, Tyr) peptide (50 ng/μl) and 5 μL of ATP (50 μM) in buffer (50 mM HEPES, pH7.5; 10 mM MgCl2; 1 mM EGTA; 0.05% BSA; 50μM DTT; 2mM MnCl2). The assay was started by incubating the reaction mixture in a 96-well plate at 30° C. for 120-min. After the incubation, 25 μL ADP-Glo reagent was added and the reaction was incubated at room temperature for 40-min to stop the reaction and degrade residual ATP. The ADP product was then converted to ATP by adding 50 μL per well of detection reagent. Luminescence was detected after 30-min room temperature incubation with the Molecular device I3X plate reader. The IC50 values were calculated from a series of percent inhibition values determined at a range of inhibitor concentration using software routines as implemented in the GraphPad Prism 8 software and Sigma Plot 13.0.
In general terms: In ADP-Glo the light output rises with the ADP produced.

Assay [3] deals with T2, recombinant human c-Kit (D816V) (Homo sapiens, UniProt P10721, D816V).
T2 construct: purchased Signalchem
T2 sequence (P10721 26-976 D816V): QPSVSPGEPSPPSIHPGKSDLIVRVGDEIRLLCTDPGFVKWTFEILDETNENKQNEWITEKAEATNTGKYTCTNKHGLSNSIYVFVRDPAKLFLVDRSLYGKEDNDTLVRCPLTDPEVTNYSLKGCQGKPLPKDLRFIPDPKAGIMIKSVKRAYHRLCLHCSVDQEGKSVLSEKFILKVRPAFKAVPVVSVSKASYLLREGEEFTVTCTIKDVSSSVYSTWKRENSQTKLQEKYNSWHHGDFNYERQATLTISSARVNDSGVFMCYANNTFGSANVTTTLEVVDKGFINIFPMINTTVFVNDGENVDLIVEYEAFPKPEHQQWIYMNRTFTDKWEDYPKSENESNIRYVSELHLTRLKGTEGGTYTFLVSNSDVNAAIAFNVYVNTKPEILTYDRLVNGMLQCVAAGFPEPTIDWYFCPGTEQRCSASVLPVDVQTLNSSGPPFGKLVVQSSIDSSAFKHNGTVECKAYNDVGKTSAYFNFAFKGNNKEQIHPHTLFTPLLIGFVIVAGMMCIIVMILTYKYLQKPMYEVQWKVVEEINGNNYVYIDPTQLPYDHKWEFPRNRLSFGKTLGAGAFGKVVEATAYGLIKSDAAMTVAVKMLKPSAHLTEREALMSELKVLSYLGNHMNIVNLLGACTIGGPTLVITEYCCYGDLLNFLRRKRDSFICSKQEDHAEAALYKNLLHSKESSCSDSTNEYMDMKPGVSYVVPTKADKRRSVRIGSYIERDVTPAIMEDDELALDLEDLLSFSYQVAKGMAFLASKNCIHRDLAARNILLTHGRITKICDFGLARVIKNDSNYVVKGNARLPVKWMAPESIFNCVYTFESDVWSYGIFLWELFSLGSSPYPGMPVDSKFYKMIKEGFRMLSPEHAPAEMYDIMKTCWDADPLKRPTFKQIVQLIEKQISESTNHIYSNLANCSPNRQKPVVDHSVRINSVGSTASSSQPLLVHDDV
Nature of the assay: c-Kit (D816V) Kinase Assay (ADP-Glo). It is filed as biochemical. The note with it: In vitro kinase activity. As for the experimental part:
ADP-Glo assay kit was purchased from Promega. Magnesium chloride (MgCl2), ethylene glycol-bis(β-aminoethyl ether)-N,N,N′,N′-tetraacetic acid (EGTA), bovine serum albumin (BSA), 1,4-dithiothreitol (DTT) and dimethyl sulfoxide (DMSO) were purchased from Sigma-Aldrich. HEPES buffer was purchased from Gibco. c-Kit (D816V) kinase and poly (4:1 Glu, Tyr) peptide were purchased from Signalchem.
as §1, with “c-Kit (D816V)” for “c-Kit”, “Promega's ADP-GIoTM” for “Promega's ADP-Glo™”, “assay, 2.5ng” for “assay, 100ng”, “ATP (15” for “ATP (50”, “BSA; 50 μM DTT).” for “BSA; 50μM DTT; 2mM MnCl2).”

For assay [4], the target named is T3, recombinant human PDGFRα (Homo sapiens, UniProt P16234).
T3 construct: purchased Signalchem
T3 sequence (P16234 24-1089): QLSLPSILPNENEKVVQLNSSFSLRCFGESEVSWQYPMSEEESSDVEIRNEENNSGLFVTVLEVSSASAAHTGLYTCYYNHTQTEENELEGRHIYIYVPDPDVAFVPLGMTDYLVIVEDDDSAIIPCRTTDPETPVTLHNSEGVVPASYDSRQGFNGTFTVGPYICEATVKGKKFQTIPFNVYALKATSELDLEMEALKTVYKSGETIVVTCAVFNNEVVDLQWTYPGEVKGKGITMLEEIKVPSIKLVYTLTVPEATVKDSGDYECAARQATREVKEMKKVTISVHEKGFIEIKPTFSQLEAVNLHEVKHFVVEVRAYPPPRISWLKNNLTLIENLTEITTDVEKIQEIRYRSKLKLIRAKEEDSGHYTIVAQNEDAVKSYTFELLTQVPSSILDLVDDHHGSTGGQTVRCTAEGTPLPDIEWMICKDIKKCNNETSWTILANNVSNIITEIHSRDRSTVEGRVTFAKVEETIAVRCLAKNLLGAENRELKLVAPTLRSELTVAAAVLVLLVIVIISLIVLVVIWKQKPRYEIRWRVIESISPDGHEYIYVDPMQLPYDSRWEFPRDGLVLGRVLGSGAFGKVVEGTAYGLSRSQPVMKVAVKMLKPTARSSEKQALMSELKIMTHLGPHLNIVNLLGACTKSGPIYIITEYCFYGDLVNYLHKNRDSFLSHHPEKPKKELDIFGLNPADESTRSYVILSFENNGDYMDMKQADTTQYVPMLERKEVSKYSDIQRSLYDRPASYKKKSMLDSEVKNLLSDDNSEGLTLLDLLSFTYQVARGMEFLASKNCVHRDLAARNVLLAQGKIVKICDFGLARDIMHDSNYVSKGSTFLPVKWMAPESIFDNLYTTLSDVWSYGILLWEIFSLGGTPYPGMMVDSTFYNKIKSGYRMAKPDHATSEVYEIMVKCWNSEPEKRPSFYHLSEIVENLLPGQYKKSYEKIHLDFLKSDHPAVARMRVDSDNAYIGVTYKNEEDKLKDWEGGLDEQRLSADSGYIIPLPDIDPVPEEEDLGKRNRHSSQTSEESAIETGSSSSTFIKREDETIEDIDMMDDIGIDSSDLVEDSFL
Nature of the assay: PDGFRα Kinase Assay (ADP-Glo). Format: biochemical. The note with it: In vitro kinase activity, read-out: PDGFRa IC50. As for the experimental part:
ADP-Glo assay kit was purchased from Promega. Magnesium chloride (MgCl2), ethylene glycol-bis(p-aminoethyl ether)-N,N,N′,N′-tetraacetic acid (EGTA), bovine serum albumin (BSA), 1,4-dithiothreitol (DTT) and dimethyl sulfoxide (DMSO) were purchased from Sigma-Aldrich. HEPES buffer was purchased from Gibco. PDGFRα Kinase and poly (4:1 Glu, Tyr) peptide were purchased from Signalchem.
(§2) PDGFRα kinase activity was measured by Promega's ADP-Glo™ Assay. In this assay, 40ng of recombinant human PDGFRα is incubated with 5 μL of compounds (0.5% DMSO), 5 μL of Poly (4:1 Glu, Tyr) peptide (100 ng/μl) and 5 μL of ATP (25 pM) in buffer (50 mM HEPES, pH7.5; 10 mM MgCl2; 1 mM EGTA; 0.05% BSA; 50 μM DTT). The assay was started by incubating the reaction mixture in a 96-well plate at 30° C. for 60-min. After the incubation, 25 μL ADP-Glo reagent was added and the reaction was incubated at room temperature for 40-min to stop the reaction and degrade residual ATP. The ADP product was then converted to ATP by adding 50 μL per well of detection reagent. Luminescence was detected after 30-min room temperature incubation with the Molecular device I3X plate reader. The IC50 values were calculated from a series of percent inhibition values determined at a range of inhibitor concentration using software routines as implemented in the GraphPad Prism 8 software and Sigma Plot 13.0.

Assay [5] addresses T4, recombinant human PDGFRα (D842V) (Homo sapiens, UniProt P16234, D842V).
T4 construct: purchased Signalchem
The experiment in a line: PDGFRα (D842V) Kinase Assay (ADP-Glo). It is filed as biochemical. The note with it: In vitro kinase activity. The procedure:
ADP-Glo assay kit was purchased from Promega. Magnesium chloride (MgCl2), ethylene glycol-bis(p-aminoethyl ether)-N, N, N′, N′-tetraacetic acid (EGTA), bovine serum albumin (BSA), 1,4-dithiothreitol (DTT) and dimethyl sulfoxide (DMSO) were purchased from Sigma-Aldrich. HEPES buffer was purchased from Gibco. PDGFRα (D842V) Kinase and poly (4:1 Glu, Tyr) peptide were purchased from Signalchem.
as §2, with “PDGFRα (D842V)” for “PDGFRα”, “10 ng” for “40ng”, “([…]” for “(25”, “[…]” for “50 μM”, “120-min.” for “60-min.”

T1 sequence (P10721 26-976): as the sequence (P10721 26-976 D816V) above, with V791D counted along it
T4 sequence (P16234 24-1089 D842V): as the sequence (P16234 24-1089) above, with D819V counted along it

As usually defined, the IC50 is the midpoint of a concentration-inhibition curve. `Cc1c(F)cccc1-c1ccc2nc(NC(=O)[C@@H]3C[C@@H]3F)cn2c1` [Example 1, (1 S,2 S)-2-fluoro-N-(6-(3-fluoro-2-methylphenyl)imidazo[1,2-a]pyridin-2-yl)cyclopropane-1-carboxamide] gave a 50% inhibitory concentration (IC50) in assay [1] of 101 to 1000 nM. For `Cc1ccc(F)cc1-c1ccc2nc(NC(=O)[C@@H]3C[C@@H]3F)cn2c1` [Example 11, (1 S,2 S)-2-fluoro-N-(6-(5-fluoro-2-methylphenyl)imidazo[1,2-a]pyridin-2-yl)cyclopropane-1-carboxamide], the IC50 in assay [1] was 101 to 1000 nM. As to `Cc1ccc(O)cc1-c1ccc2nc(NC(=O)[C@@H]3C[C@@H]3F)cn2c1` [Example 12, (1 S,2 S)-2-fluoro-N-(6-(5-hydroxy-2-methylphenyl)imidazo[1,2-a]pyridin-2-yl)cyclopropane-1-carboxamide], the IC50 in assay [1] fell in the range of 10 to 100 nM. `Cc1ccc2[nH]ccc2c1-c1ccc2nc(NC(=O)[C@@H]3C[C@@H]3F)cn2c1` [Example 15, (1 S,2 S)-2-fluoro-N-(6-(5-methyl-1H-indol-4-yl)imidazo[1,2-a]pyridin-2-yl)cyclopropane-1-carboxamide]: the IC50 in assay [1] fell in the range of 10 to 100 nM. Same read-out and setting: with `CNc1ccc(C)c(-c2ccc3nc(NC(=O)[C@@H]4C[C@@H]4F)cn3c2)c1` [Example 24, (1 S,2 S)-2-fluoro-N-(6-(2-methyl-5-(methylamino)phenyl)imidazo[1,2-a]pyridin-2-yl)cyclopropane-1-carboxamide] the figure was 10 to 100 nM; with `Cc1ccc(-c2cc[nH]c2)cc1-c1ccc2nc(NC(=O)[C@@H]3C[C@@H]3F)cn2c1` [Example 40, (1 S,2 S)-2-fluoro-N-(6-(2-methyl-5-(1H-pyrrol-3-yl)phenyl)imidazo[1,2-a]pyridin-2-yl)cyclopropane-1-carboxamide], 10 to 100 nM. `COCc1c(F)cccc1-c1ccc2nc(NC(=O)[C@@H]3C[C@@H]3F)cn2c1` [Example 64, (1 S,2 S)-2-fluoro-N-(6-(3-fluoro-2-(methoxymethyl)phenyl)imidazo[1,2-a]pyridin-2-yl)cyclopropanecarboxamide]: the IC50 in assay [2] is more than 1000 nM; in assay [3], more than 1000 nM; in assay [4], more than 1000 nM; in assay [5], 101 to 1000 nM.

On to `O=C(Nc1cn2cc(-c3cccc(F)c3-c3ccco3)ccc2n1)[C@@H]1C[C@@H]1F` [Example 65, (1 S,2 S)-2-fluoro-N-(6-(3-fluoro-2-(furan-2-yl)phenyl)imidazo[1,2-a]pyridin-2-yl)cyclopropanecarboxamide], for which the half-maximal inhibitory concentration (IC50) in assay [2], in assay [3], in assay [4] and in assay [5] was more than 1000 nM throughout. In assay [1], `Cc1c(F)cccc1-c1ccc2nc(NC(=O)C3CC3)cn2c1` [Example 70, N-(6-(3-fluoro-2-methylphenyl)imidazo[1,2-a]pyridin-2-yl)cyclopropanecarboxamide] showed an IC50 of 101 to 1000 nM. The compound `Cc1c(F)cccc1-c1ccc2nc(NC(=O)C3CC3(F)F)cn2c1` (stereo not shown) [Example 77, 2,2-difluoro-N-(6-(3-fluoro-2-methylphenyl)imidazo[1,2-a]pyridin-2-yl)cyclopropanecarboxamide] registered an IC50 in assay [1] of 101 to 1000 nM. For `CN(C)Cc1c(F)cccc1-c1ccc2nc(NC(=O)[C@@H]3C[C@@H]3F)cn2c1` [Example 84, (1 S,2 S)-N-(6-(2-((dimethylamino)methyl)-3-fluorophenyl)imidazo[1,2-a]pyridin-2-yl)-2-fluorocyclopropanecarboxamide], the IC50 in assay [2] and in assay [3] was more than 1000 nM in each case.

As for `O=C(Nc1cn2cc(-c3cnc4[nH]ccc4c3)ccc2n1)[C@@H]1C[C@@H]1F` [Example 85, (1 S,2 S)-N-(6-(1H-pyrrolo[2,3-b]pyridin-5-yl)imidazo[1,2-a]pyridin-2-yl)-2-fluorocyclopropanecarboxamide], in assay [1], the IC50 was in the range of 101 to 1000 nM. Same read-out and setting: with `Cc1cc2[nH]ccc2cc1-c1ccc2nc(NC(=O)[C@@H]3C[C@@H]3F)cn2c1` [Example 92, (1 S,2 S)-2-fluoro-N-(6-(6-methyl-1H-indol-5-yl)imidazo[1,2-a]pyridin-2-yl)cyclopropanecarboxamide] the figure was 10 to 100 nM; with `Cc1cc2nc[nH]c2cc1-c1ccc2nc(NC(=O)[C@@H]3C[C@@H]3F)cn2c1` [Example 94, (1 S,2 S)-2-fluoro-N-(6-(5-methyl-1H-benzo[d]imidazol-6-yl)imidazo[1,2-a]pyridin-2-yl)cyclopropanecarboxamide], 101 to 1000 nM; with `Cc1cc2ncsc2cc1-c1ccc2nc(NC(=O)[C@@H]3C[C@@H]3F)cn2c1` [Example 103, (1 S,2 S)-2-fluoro-N-(6-(5-methylbenzo[d]thiazol-6-yl)imidazo[1,2-a]pyridin-2-yl)cyclopropanecarboxamide], 10 to 100 nM.

The values above are taken from patent publication US20220242861A1, “IMIDAZOPYRIDINYL COMPOUNDS AND USE THEREOF FOR TREATMENT OF PROLIFERATIVE DISORDERS” (1ST Biotherapeutics, Inc., priority 2019, published 2022).
